This is an account of results in PubChem BioAssay AID1787 (Sanford-Burnham Center for Chemical Genomics, 2009).

Calls of active or inactive are those of the source. No rule for the calls is given here.

This test concerns MDA-MB-435 cytotoxicity with TRAIL, ATPlite luminescence, 24 h. In words: PubChem AID 1787.

For the compound `CSc1nc(-c2ccc(C)cc2)nc(C(Cl)Cl)n1`, the cytotoxicity runs as follows: (TRAIL alone cytotoxicity, dose or concentration not given here) 42%; (compound alone cytotoxicity series, at 30 µM, stronger effect = higher value) 8%. In addition, the cytotoxicity with TRAIL (at 30 µM (top of the series)) is 92 (inactive).
